Laboratory results: US7214495B2, “Screening method” (Takeda Pharmaceutical Company Limited, priority 2002, dated 2007)

What was measured:
Mouse GPR40 = molecular target: T1, Mouse GPR40 (Mus musculus, UniProt Q76JU9); assay: EC50 by FLIPR calcium assay in CHO cells stably expressing mouse GPR40; type: cell-based; settings: intracellular calcium, FLIPR, stable CHO line
T1 construct: expressed in transfected cells
Procedure: (§1) For determination of EC50 values, the CHO cell lines in which human-, mouse- and rat-derived GPR40 was stably expressed were used. Unless otherwise indicated, these CHO cell lines were incubated in α-MEM medium (Invitrogen) supplemented with 10% fetal calf serum (Invitrogen).
(§2) On the day before assay, the cells incubated to almost confluent stage were rinsed with PBS (Invitrogen), then scraped in 0.05% trypsin-EDTA solution (Invitrogen) and recovered by centrifugal operation. The number of the cells obtained was counted and diluted so as to contain 3×10^5 cells/1 mL of the medium. The dilution was dispensed in a Black welled 96-well plate (Coster) in 100 μL/well, followed by incubation overnight in a CO2 incubator. To the thus prepared CHO cells, various test samples were added and the changes in intracellular calcium level in this case were measured using FLIPR (Molecular Device). In order to determine the changes in the intracellular calcium ion level on FLIPR, the cells were pre-treated by the following procedures.
(§3) First, for the purpose of adding a fluorescent dye Fluo-3 AM (DOJIN) to the cells or washing the cells immediately before the FLIPR assay, an assay buffer was prepared. A solution obtained by adding 20 mL of 1M HEPES (pH 7.4) (DOJIN) to 1000 mL of HBSS (Invitrogen) was prepared (hereinafter HBSS/HEPES solution), to which 10 mL of a solution mixture obtained by dissolving 710 mg of Probenecid (Sigma) in 5 mL of 1N NaOH and further adding 5 mL of HBSS/HEPES solution was added. The resulting solution was used as the assay buffer. Next, 50 μg of Fluo-3AM was dissolved in 21 μL of DMSO (Wako) and an equal volume of 20% Pulronic acid (Molecular Probes) was added to and mixed with the solution. The mixture was then added to 10.6 mL of the assay buffer supplemented with 105 μL of fetal calf serum to prepare a fluorescent dye solution. […], the medium for the CHO cells again plated in a Black welled 96-well plate was removed. Immediately thereafter, the fluorescent dye solution was dispensed in 100 μL each/well and the cells were incubated in a CO2 incubator for an hour so that the fluorescent dye was taken up into the cells. The cells after the incubation was washed with the assay buffer described above and set on FLIPR. […] After the pre-treatment above was made, the changes in intracellular calcium level after the addition of various test samples were measured on FLIPR.

[1] = test system: mouse insulinoma MIN6 cells; assay: Insulin secretion from MIN6 cells with free fatty acid-BSA mixture (RIA); type: cell-based; settings: 300 μM to 1000 μM; fatty acid-BSA 4:1; 11 mM glucose; 90 (or 60) minutes
Procedure: The MIN6 cells were cultured in DMEM (high glucose, Invitrogen) containing 15% FCS (Trace Scientific Ltd.), 55 μM 2-mercaptoethanol, 100 U/ml penicillin and 100 μg/ml streptomycin, unless otherwise indicated. MIN6 cells were plated in a 96-well plate in 10^5 cells/well, followed by incubation at 37° C. for 3 days in a CO2 incubator adjusted to a concentration of 5% CO2. The medium was replaced by RPMI1640 (glucose free, Invitrogen) containing 10% FCS (Trace Scientific Ltd.), 5.5 mM glucose, 100 U/ml penicillin and 100 μg/ml streptomycin, followed by incubation for further 24 hours. After the medium was removed by suction, a solution mixture of free fatty acid-bovine serum albumin (BSA) (in a molar ratio of 4:1) diluted with RPMI1640 (glucose free, Invitrogen) containing 10% FCS (Trace Scientific Ltd.), 11 mM glucose, 100 U/ml penicillin and 100 μg/ml streptomycin was added to the cells, followed by reacting in a CO2 incubator adjusted to a 5% CO2 concentration at 37° C. for 90 minutes (or 60 minutes). After the reaction, the 96-well plate was centrifuged at 1500 rpm for 5 minutes and the culture supernatant was then recovered. The amount of insulin secreted into the culture supernatant was determined by radioimmunoassay (RIA) using the rat insulin RIA system (Amersham Pharmacia).

human GPR40 = molecular target: T2, human GPR40 (Homo sapiens, UniProt O14842); assay: EC50 by FLIPR calcium assay in CHO cells stably expressing human GPR40; type: cell-based; settings: intracellular calcium, FLIPR, stable CHO line; for EC50: read-out: EC50 Human GPR40
T2 construct: The resulting fragment (ca. 1 kb) was introduced into vector pAKKO-111, which was used for transfection of CHO cells; expressed in transfected cells
Procedure: as §1, §2, §3

Rat GPR40 = molecular target: T3, Rat GPR40 (Rattus norvegicus, UniProt Q8K3T4); assay: EC50 by FLIPR calcium assay in CHO cells stably expressing rat GPR40; type: cell-based; settings: intracellular calcium, FLIPR, stable CHO line
T3 construct: expressed in transfected cells
Procedure: as §1, §2, §3

human-derived GPR40 = molecular target: T4, human-derived GPR40 (Homo sapiens, UniProt O14842); assay: Intracellular calcium change (FLIPR) in CHO-hGPR40 No. 104, eicosanoids; type: cell-based; settings: added in 10^−5 M to 10^−6 M; no response in vector-only control
T4 construct: The DNA fragment encoding human GPR40 was acquired by the following PCR procedures; expressed in transfected cells; host or cells: CHO-K1 (transient, Lipofectamine)
Procedure: The CHO cell line (CHO-hGPR40 No. 104) wherein human GPR40 prepared by publicly known methods using the human GPR40 expression vector prepared in REFERENCE EXAMPLE 1 was expressed was cultured in MEMα medium (Invitrogen) containing 10% fetal calf serum (Invitrogen), unless otherwise indicated. The cells cultured were rinsed with PBS (Invitrogen), scraped in trypsin/EDTA solution (Invitrogen) and recovered by centrifugal operation. The number of the cells obtained was counted and diluted so as to contain 3×10^4 cells/100 μl. The dilution was dispensed in a Black walled 96-well plate (Costar) in 100 μl/well, followed by incubation overnight in a CO2 incubator. The changes in intracellular calcium level in this case were measured using FLIPR (Molecular Device). In order to determine the changes in the intracellular calcium ion level on FLIPR, the cells were pre-treated by the following procedures. First, for the purpose of adding a fluorescent dye Fluo-3 AM (DOJIN) to the cells or washing the cells immediately before the FLIPR assay, an assay buffer was prepared. A solution obtained by adding 20 ml of 1M HEPES (pH 7.4) (DOJIN) to 1000 ml of HBSS (Invitrogen) was prepared (hereinafter HBSS/HEPES solution), to which 10 ml of a solution mixture obtained by dissolving 710 mg of Probenecid (Sigma) in 5 ml of 1N NaOH and further adding 5 ml of HBSS/HEPES solution was added. The resulting solution was used as the assay buffer. Next, 50 μg of Fluo-3AM was dissolved in 21 μl of DMSO (DOJIN) and an equal volume of 20% Pulronic acid (Molecular Probes) was added to and mixed with the solution. The mixture was then added to 10.6 ml of the assay buffer supplemented with 105 μl of fetal calf serum to prepare a fluorescent dye solution. The medium for the CHO cell line cultured was removed. Immediately thereafter, the fluorescent dye solution was dispensed in 100 μl each/well and the cells were incubated in a CO2 incubator for an hour so that the fluorescent dye was taken up into the cells. The cells after the incubation was washed with the assay buffer described above and set on FLIPR. A test sample added to the CHO cell line was prepared using the assay buffer and set on FLIPR at the same time. After the pre-treatment above was made, the changes in intracellular calcium level after the addition of various test samples were measured on FLIPR. […] It was thus noted that GPR40 was responsive to these compounds as well.

[2] = test system: mouse pancreatic β cell line MIN6; assay: Insulin secretion from MIN6 in KRBH buffer (immunoassay); type: cell-based; settings: 22 mM glucose KRBH, 90 minutes
Procedure: The mouse pancreatic β cell line MIN6 incubated in a flask was scraped in PBS containing 2.5 mM EDTA and plated in a 96-well plate followed by incubation for 2 days. The medium used was the same as in EXAMPLE 24, namely, 4.5 g/l of glucose-containing Dulbecco's Modified Eagle Medium (DMEM, Invitrogen, Inc.) supplemented with 15% fetal calf serum (ThermoTrace, Inc.), 5.5 μM 2-mercaptethanol (Invitrogen, Inc.), 20 mM HEPES pH 7.3, 100 U/ml penicillin and 100 μg/ml streptomycin. The cells were washed twice with modified Krebs-Ringer bicarbonate buffer (KRBH, 116 mM NaCl, 4.7 mM KCl, 1.2 mM KH2PO4, 1.2 mM MgSO4, 2.5 mM CaCl2, 25 mM NaHCO3, 24 mM HEPES, pH 7.3), followed by preincubation at 37° C. in 5% CO2 for 30 minutes. The fatty acid diluted/prepared using the aforesaid KRBH buffer added with 22 mM glucose was added to the cells after the preincubation, followed by incubation under the conditions of 37° C. in 5% CO2 for 90 minutes. After the incubation, the supernatant of the cells was recovered and stored in a frozen state. The insulin content in the supernatant was assayed using an insulin immunoassay kit commercially available (Amersham Pharmacia, Inc.).
Based on the method of EXAMPLE 25, effects of glucose level when added with fatty acids were examined. The level of glucose, which was added to KRBH upon the addition of fatty acids, was varied to 0, 5.5, 11 and 22 mM to study the effects.
The insulin secretion enhancing activity in the m40i103-introduced MIN6 cells using HVJ Envelope VECTOR KIT GenomONE based on the method of EXAMPLE 18 was examined. The insulin secretion enhancing activity by fatty acids was examined according to the method of EXAMPLE 25.
Based on the procedures of EXAMPLE 25, an essential prerequisite of Ca^2+ ions in the extracellular fluid was examined. In preincubation and incubation with a sample, Ca^2+ ions were removed and 0.1 mM EGTA, which was a reagent for chelating Ca^2+ ions, was further added, and then the insulin secretion enhancing activity by fatty acids was examined in this case.
Based on the method of EXAMPLE 25, effects of Ca^2+ channel blocker (Nifedipine) and MAP kinase inhibitor (PD98059) were examined. In preincubation and incubation with a sample, the insulin secretion enhancing activity by fatty acids was examined when Nifedipine (10 μM) or PD98059 (50 μM) was added.
It is known that fatty acids have the property of binding to albumin. Based on the method of EXAMPLE 25, effects were examined when bovine serum albumin (BSA) was present. In preincubation and incubation with a sample, the insulin secretion activity by fatty acids was examined when 0.1% BSA was added to the buffer.

MIN6 cells = assay: FLIPR intracellular calcium assay using MIN6; type: cell-based, mouse; settings: 10 μM fatty acid
Procedure: Mouse pancreatic β cell line MIN6 incubated in a flask was scraped using PBS containing 2.5 mM EDTA and diluted so as to contain 3×10^5 cells/1 mL of the medium. The dilution was dispensed in a Black welled 96-well plate (Coster) in 100 μL/well, followed by incubation in a CO2 incubator for 2 days. The medium used was 4.5 g/l of glucose-containing Dulbecco's Modified Eagle Medium (DMEM, Invitrogen, Inc.) supplemented with 15% fetal calf serum (ThermoTrace, Inc.), 5.5 μM 2-mercaptethanol (Invitrogen, Inc.), 20 mM HEPES pH 7.3, 100 U/ml penicillin and 100 μg/ml streptomycin. To the thus prepared MIN6 cells, various fatty acids (10 μM) were added and the changes in intracellular calcium level in this case were measured using FLIPR (Molecular Device). The changes in the intracellular calcium ion level on FLIPR were assayed in accordance with the procedures described in EXAMPLE 24.

T2 sequence (O14842 whole entry, the tested form may be a part): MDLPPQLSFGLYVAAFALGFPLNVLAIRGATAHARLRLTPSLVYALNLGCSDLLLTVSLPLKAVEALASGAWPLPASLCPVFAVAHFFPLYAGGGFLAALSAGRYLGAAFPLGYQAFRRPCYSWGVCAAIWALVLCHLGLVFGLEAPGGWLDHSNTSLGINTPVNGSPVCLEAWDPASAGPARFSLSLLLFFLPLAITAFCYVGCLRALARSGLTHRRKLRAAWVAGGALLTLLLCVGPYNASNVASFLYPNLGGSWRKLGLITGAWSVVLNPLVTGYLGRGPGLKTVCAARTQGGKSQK
T4 sequence (O14842 whole entry, the tested form may be a part): as above
T1 sequence (Q76JU9 whole entry): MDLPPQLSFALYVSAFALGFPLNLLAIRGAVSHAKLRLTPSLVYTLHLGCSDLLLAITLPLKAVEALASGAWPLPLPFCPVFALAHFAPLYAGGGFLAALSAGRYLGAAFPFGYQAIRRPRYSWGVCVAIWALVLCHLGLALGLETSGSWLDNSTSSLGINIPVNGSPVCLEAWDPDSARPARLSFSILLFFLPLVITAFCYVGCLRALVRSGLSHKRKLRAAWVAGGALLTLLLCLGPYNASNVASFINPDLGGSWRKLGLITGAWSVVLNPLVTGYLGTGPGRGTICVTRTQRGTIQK
T3 sequence (Q8K3T4 whole entry): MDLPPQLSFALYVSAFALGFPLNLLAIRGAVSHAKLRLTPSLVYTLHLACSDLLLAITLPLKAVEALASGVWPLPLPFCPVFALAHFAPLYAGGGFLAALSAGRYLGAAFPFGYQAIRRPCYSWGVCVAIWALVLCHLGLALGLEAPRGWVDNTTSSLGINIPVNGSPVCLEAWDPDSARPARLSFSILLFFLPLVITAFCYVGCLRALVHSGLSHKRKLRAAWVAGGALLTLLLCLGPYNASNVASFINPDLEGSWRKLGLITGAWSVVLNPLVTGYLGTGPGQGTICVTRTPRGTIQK

Row | EC50 (human GPR40) [µM] | response (increase in intracellular calcium level) of GPR40-expressing CHO cell line (human-derived GPR40) | SMILES | also measured
1 | 7.7 ± 0.2 | specifically responsive | CCCCCC=CCC=CCC=CCC1OC1CCCC(=O)O (mixture of isomers) [5,6-Epoxyeicosatrienoic acid, (±)5(6)-epoxy-8Z,11Z,14Z-eicosatrienoic acid] | 
2 | 1.4 ± 0.3 | specifically responsive | CCCCCC=CCC1OC1CC=CCC=CCCCC(=O)O (mixture of isomers) [11,12-Epoxyeicosatrienoic acid, (±)11(12)-epoxy-5Z,8Z,14Z-eicosatrienoic acid] | 
3 |  | specifically responsive | CCCCCC1OC1C/C=C\C/C=C\C/C=C\CCCC(=O)O (racemic) [14,15-EET, (±)14(15)-epoxy-5Z,8Z,11Z-eicosatrienoic acid] | 

Further lines, the compound ahead of its results:

Row | SMILES | EC50 (human GPR40) [µM] | response (increase in intracellular calcium level) of GPR40-expressing CHO cell line (human-derived GPR40) | also measured
4 | CCCCCCCCCCCCCCCC(=O)O [Palmitic acid (C16), Palmitic acid] | 6.8 ± 0.5 |  | EC50 (Mouse GPR40; read-out: EC50 Mouse GPR40): 4.6 ± 1.2 µM; insulin secretion by MIN6 cells [1]: promoted; EC50 (Rat GPR40; read-out: EC50 Rat GPR40): 6.6 ± 0.4 µM
5 | CCCCC/C=C\C/C=C\CCCCCCCC(=O)OC [Methyl linolate] |  |  | EC50 Mouse GPR40 (Mouse GPR40): inactive; insulin secretion enhancing activity [2]: did not show any significant insulin secretion enhancing activity; EC50 Human GPR40 (human GPR40): inactive; EC50 Rat GPR40 (Rat GPR40): inactive; intracellular Ca^2+ level in MIN6 (MIN6 cells): not observed
6 | CCCCCC(O)C(O)CC=CCC=CCC=CCCCC(=O)O (mixture of isomers) [14,15-Dihydroxyeicosatrienoic acid, (±)14,15-dihydroxy-5Z,8Z,11Z-eicosatrienoic acid] | 1.1 ± 0.4 | specifically responsive | 
7 | CCCCCC=CCC=CCC1OC1CC=CCCCC(=O)O (mixture of isomers) [8,9-Epoxyeicosatrienoic acid, (±)8(9)-epoxy-5Z,11Z,14Z-eicosatrienoic acid] | 6.1 ± 0.2 | specifically responsive | 
